The values that follow come from ChEMBL document CHEMBL5346867, “A close look into the biological and synthetic aspects of fused pyrazole derivatives” (Eur J Med Chem, 2022).

For assay [1], the system named is Bovine viral diarrhea virus 1. The assay is described as follows: Antiviral activity against Bovine viral diarrhea virus 1 infected in MDBK cells assessed as reduction in viral replication. In kind it is functional, organism-based. As to conditions: Bovine viral diarrhea virus isolates and strains.
Assay [2] concerns the target Epidermal growth factor receptor (Homo sapiens, UniProt P00533). The assay is described as follows: Inhibition of EGFR (unknown origin).
Assay [3] concerns the target T1, Sodium-dependent proline transporter (Homo sapiens) (UniProt Q99884).
T1 sequence (whole entry): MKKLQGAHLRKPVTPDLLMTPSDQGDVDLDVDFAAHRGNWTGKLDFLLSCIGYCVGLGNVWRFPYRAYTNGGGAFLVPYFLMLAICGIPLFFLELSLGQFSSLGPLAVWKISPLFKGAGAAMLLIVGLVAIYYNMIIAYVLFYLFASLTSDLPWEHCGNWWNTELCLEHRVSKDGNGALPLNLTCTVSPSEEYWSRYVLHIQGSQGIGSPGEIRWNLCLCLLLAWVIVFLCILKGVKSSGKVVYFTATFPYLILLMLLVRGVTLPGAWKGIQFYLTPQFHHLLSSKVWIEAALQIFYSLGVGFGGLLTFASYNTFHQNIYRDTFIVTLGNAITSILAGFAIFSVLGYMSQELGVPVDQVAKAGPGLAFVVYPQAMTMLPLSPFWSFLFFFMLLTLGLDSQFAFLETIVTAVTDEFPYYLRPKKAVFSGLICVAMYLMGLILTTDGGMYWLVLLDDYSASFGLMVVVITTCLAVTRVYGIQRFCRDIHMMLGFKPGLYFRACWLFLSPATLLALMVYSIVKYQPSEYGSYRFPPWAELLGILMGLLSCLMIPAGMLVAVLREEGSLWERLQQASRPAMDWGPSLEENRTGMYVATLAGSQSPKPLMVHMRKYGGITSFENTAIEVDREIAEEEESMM
The assay is described as follows: Inhibition of human PROT at 0.1 uM relative to control.

A further assay concerns HT-29. The assay is described as follows: cells. The following applies: Homo sapiens, HT-29, 48 h.
The target of assay [4] is Vascular endothelial growth factor receptor 2 (Homo sapiens, UniProt P35968). Nature of the assay: Inhibition of VEGFR-2 (unknown origin).
Chain of Vascular endothelial growth factor receptor 2 (P35968 whole entry): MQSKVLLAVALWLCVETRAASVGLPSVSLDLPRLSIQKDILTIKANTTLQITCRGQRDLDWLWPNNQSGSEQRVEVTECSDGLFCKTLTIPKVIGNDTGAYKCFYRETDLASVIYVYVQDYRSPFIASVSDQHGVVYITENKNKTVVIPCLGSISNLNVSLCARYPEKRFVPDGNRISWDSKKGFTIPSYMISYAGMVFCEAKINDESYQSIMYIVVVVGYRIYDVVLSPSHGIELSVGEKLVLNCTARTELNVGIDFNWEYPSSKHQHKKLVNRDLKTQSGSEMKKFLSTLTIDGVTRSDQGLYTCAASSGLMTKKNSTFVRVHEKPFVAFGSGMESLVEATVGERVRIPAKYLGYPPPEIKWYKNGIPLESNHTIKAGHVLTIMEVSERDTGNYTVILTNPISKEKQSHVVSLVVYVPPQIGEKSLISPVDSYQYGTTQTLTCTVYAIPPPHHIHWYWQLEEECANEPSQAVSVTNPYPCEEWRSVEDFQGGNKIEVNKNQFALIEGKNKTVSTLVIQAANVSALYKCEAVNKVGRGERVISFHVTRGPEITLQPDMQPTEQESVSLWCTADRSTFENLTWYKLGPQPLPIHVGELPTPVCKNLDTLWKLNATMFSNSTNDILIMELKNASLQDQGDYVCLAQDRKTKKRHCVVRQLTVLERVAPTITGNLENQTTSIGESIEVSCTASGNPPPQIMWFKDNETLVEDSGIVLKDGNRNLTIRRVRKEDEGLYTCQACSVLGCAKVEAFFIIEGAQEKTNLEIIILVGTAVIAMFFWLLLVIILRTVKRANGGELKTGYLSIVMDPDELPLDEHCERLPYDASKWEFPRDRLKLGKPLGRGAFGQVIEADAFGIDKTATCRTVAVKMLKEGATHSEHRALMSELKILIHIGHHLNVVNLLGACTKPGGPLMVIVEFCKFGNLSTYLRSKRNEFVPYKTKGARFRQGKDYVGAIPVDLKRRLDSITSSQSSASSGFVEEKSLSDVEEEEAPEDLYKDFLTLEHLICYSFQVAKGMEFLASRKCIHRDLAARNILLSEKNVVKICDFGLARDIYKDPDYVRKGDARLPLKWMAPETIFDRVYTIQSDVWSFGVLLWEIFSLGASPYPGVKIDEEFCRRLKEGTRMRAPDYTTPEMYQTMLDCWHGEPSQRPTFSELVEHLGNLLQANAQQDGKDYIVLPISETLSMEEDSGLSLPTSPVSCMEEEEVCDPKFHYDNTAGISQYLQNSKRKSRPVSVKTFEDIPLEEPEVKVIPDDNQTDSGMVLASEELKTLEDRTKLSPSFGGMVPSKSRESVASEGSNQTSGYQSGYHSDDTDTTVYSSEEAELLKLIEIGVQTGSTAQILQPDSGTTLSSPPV

Chain of Epidermal growth factor receptor (P00533 whole entry): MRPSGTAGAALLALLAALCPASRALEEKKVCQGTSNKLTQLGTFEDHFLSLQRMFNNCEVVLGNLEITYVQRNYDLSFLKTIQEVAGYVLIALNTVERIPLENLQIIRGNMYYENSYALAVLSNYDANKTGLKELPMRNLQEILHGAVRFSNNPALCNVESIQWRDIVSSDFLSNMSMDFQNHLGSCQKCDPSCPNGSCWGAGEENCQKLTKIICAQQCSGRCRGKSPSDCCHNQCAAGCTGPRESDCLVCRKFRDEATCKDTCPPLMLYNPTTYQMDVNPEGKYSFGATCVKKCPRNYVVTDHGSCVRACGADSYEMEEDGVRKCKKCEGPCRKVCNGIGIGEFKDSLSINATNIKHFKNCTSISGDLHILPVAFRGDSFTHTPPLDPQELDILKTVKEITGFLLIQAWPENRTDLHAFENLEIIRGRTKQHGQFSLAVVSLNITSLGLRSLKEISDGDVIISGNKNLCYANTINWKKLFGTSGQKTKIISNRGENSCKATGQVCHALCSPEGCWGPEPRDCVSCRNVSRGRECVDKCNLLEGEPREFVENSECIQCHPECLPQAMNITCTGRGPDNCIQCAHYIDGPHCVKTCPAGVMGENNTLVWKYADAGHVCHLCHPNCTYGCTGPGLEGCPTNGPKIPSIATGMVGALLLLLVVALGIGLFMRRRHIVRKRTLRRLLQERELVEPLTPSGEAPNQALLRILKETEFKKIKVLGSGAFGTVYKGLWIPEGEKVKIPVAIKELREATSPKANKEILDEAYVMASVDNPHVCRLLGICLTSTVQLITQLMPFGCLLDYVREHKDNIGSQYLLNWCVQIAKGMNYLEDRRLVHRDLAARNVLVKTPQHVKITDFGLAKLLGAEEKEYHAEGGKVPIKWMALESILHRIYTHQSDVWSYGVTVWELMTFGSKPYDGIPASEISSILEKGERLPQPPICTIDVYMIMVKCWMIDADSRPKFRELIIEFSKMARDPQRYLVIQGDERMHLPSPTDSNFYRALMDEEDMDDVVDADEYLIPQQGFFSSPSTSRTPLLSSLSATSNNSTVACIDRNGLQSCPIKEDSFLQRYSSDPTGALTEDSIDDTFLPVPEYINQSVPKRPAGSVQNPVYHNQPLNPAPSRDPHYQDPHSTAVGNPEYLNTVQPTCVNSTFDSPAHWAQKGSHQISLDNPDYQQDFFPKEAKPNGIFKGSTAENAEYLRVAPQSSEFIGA
Description for HT-29: Anti-proliferative activity against human HT-29 assessed as inhibition of cell growth incubated for 48 hrs by MTT assay

For `NC(=O)c1ncn([C@@H]2O[C@H](CO)[C@@H](O)[C@H]2O)n1` [RIBAVIRIN], the EC50 in assay [1] is 1300 nM.

Molecule `CC1=NNC2Oc3ncn(N)c(=N)c3C(c3ccccc3Br)C12` (stereo unspecified) had an IC50 in assay [2] of 60 nM.

`CCCCC[C@H]1CCCN1C(=O)c1nn(C(C)(C)C)c2nc(NC(=O)c3ccc(C)cc3)sc12` displayed an inhibition in assay [3] of 50%.

In the case of `Cc1nn(-c2ccc(Cl)cc2)c2c1C(=O)N(c1ccccc1)C2`, in assay [1], the EC50 was found to be 120 nM.

In the case of `COc1cc(/C=N/NC(=O)COc2nc(C)nc3c2c(C)nn3-c2ccccc2)cc(OC)c1OC`, inhibition in the assay on HT-29 was half-maximal at 5360 nM (IC50).

In assay [4], `CC1=NNC2OC(NS(=O)(=O)c3ccc(C)cc3)=C(C#N)C(c3ccccc3Br)C12` (stereo unspecified) showed an IC50 of 220 nM.
